From ChEMBL document CHEMBL1201862, “PubChem BioAssay data set” (2004)
Active and inactive are the calls of the source.

Columns and labels:
Aminopeptidase N = target: T1, Aminopeptidase N (Plasmodium falciparum FcB1/Columbia, UniProt O96935); experiment: malaria alanyl aminopeptidase activity blockers – biochemical, fluorogenic H-Leu-NHMec substrate, 1536-well (AID 1445); design: species or system Plasmodium falciparum 3D7, 3D7
T1 sequence (O96935 whole entry): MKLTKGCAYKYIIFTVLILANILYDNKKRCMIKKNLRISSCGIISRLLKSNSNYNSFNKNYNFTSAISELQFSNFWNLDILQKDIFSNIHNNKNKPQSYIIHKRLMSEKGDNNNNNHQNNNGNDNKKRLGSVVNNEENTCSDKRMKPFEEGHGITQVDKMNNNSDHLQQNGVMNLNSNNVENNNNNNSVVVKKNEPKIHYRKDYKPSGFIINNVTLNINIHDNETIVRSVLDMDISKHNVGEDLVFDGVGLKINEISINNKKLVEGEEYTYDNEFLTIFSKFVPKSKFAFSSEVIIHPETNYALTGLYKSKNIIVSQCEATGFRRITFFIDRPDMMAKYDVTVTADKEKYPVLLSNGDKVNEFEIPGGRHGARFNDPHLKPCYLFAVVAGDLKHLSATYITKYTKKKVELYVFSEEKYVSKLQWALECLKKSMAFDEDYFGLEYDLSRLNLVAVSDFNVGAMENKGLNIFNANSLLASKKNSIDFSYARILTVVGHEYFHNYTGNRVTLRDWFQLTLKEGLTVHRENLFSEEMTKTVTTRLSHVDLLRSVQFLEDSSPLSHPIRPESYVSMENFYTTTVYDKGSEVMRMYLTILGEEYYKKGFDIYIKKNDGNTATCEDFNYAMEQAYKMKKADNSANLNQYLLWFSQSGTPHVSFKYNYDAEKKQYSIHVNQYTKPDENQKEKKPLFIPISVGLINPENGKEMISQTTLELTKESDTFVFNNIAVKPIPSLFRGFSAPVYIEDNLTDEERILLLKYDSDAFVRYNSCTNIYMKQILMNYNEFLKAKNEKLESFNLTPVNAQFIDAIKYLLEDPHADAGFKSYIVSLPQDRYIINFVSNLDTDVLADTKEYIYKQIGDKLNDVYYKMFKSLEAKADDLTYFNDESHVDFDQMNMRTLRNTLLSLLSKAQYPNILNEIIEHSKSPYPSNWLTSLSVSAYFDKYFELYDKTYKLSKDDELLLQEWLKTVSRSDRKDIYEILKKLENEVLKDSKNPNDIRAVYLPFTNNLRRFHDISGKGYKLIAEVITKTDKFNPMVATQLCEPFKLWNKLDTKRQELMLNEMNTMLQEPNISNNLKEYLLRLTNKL

[1] = target: T2, RNA-binding protein pos-1 (Caenorhabditis elegans, UniProt G5EF15); experiment: disruptors of C. elegans POS-1 RNA interaction – biochemical, fluorescence polarization, dose response (AID 1964);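 also: purified POS-1 fused to maltose binding protein made in E. coli; potency of compounds blocking POS-1 binding to fluorescent RNA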
T2 sequence (G5EF15 whole entry): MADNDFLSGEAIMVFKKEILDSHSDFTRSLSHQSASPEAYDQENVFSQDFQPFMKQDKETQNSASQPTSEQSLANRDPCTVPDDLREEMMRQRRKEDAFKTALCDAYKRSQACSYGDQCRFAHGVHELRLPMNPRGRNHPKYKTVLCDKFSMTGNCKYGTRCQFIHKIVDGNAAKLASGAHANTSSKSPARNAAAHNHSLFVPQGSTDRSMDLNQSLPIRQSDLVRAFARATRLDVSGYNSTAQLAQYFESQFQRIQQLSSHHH

[2] = target: T3, Zinc finger protein mex-5 (Caenorhabditis elegans, UniProt Q9XUB2); experiment: potency of MEX-5 RNA-binding blockers – biochemical, C. elegans, fluorescence polarization, dose response (AID 1960)
T3 sequence (Q9XUB2 whole entry): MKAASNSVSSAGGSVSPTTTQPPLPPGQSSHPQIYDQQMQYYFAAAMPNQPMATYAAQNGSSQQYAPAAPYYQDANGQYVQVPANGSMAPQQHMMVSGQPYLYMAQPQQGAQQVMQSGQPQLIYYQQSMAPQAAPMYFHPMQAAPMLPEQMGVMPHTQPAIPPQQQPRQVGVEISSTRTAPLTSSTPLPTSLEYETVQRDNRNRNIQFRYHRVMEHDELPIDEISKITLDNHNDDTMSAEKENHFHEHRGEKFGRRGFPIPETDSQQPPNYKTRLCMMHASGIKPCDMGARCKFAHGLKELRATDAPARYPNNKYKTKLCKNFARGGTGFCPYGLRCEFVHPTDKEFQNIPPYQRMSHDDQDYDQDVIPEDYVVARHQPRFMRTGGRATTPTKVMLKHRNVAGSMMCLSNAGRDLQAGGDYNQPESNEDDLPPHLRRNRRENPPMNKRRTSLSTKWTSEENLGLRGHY

Prothrombin = Prothrombin (Homo sapiens, UniProt P00734); experiment: Thrombin 1536 HTS Dose Response Confirmation. [Related pubchem assays: 1046 (Thrombin 1536 HTS; hits were confirmed in this assay)]; format: functional
[3] = A Cell Based Secondary Assay To Explore Cytotoxicity of Compounds that Sensitize Mycobacterium Tuberculosis to Beta-Lactam Antibiotics.; format: functional
[4] = target: T4, Ubiquitin-conjugating enzyme E2 N (Homo sapiens, UniProt P61088); format: functional;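 also: Dose-response confirmation in a TR-FRET assay detecting UBC13-driven polyubiquitin chain formation, inhibition measured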
T4 sequence (P61088 whole entry): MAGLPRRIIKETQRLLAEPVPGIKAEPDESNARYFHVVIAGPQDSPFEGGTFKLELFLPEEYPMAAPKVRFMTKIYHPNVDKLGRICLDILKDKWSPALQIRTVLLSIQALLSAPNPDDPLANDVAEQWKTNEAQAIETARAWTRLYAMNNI

Nonstructural protein 1 = Nonstructural protein 1 (Influenza A virus, UniProt Q194T2); format: functional, Influenza A virus (A/California/07/2009(H1N1))
Nonstructural protein 1, sequence (Q194T2 whole entry): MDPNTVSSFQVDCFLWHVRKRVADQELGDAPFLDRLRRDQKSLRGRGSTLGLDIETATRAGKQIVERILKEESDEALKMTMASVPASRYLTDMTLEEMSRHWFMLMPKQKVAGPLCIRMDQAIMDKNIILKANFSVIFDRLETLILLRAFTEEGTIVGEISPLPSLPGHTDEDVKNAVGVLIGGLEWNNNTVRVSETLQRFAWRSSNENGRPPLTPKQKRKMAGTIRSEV

[5] = target: T5, DNA repair protein RAD52 homolog (Homo sapiens, UniProt P43351); format: functional, biochemical
T5 sequence (P43351 whole entry): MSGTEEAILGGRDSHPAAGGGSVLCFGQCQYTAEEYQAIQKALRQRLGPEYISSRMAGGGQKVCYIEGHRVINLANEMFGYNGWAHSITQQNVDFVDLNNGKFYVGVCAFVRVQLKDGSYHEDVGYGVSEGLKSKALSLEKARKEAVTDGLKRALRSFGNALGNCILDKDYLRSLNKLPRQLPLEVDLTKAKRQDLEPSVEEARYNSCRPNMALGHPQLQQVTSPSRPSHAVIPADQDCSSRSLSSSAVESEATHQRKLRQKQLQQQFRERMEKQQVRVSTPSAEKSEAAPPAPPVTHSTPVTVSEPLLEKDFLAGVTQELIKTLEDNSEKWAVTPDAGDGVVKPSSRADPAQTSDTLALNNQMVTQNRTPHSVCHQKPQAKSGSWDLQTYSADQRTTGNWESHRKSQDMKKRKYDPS

Cytochrome P450 2C9 = Cytochrome P450 2C9 (Homo sapiens, UniProt P11712)
Cytochrome P450 2C9, sequence (P11712 whole entry): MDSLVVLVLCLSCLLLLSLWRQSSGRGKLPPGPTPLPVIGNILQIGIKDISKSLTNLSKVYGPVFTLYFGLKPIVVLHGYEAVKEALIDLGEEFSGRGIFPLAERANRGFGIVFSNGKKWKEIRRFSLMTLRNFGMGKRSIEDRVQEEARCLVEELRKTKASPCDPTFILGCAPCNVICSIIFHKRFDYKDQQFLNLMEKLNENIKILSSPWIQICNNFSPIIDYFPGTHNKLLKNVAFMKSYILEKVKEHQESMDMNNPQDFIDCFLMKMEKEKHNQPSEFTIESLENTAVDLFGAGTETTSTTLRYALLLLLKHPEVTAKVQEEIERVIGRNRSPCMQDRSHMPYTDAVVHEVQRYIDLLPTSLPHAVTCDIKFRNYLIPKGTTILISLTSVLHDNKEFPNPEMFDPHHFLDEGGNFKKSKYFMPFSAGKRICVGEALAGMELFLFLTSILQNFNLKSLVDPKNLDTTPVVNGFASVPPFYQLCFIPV

[6] = NIH-3T3 fibroblast cytotoxicity, dose response, cytotoxicity control, cell-based, fluorescence, Alamar Blue, secondary assay (AID 2327); format: functional;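 also: NIH-3T3 mouse fibroblasts cultured with fluconazole at 8 µg/mL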
BJ [7] = experiment: BJ-TERT fibroblast viability loss – cell-based, RAS-independent, luminescence, dose response (AID 1933); format: functional; conditions: Homo sapiens
BJ [8] = experiment: cells; format: functional, cell-based; conditions: Homo sapiens
[9] = fluconazole-exposed Candida albicans growth modulators – fluorescence, retest, confirmation (AID 2467); format: functional, cell-based
BJ [10] = experiment: BJ-TERT-LT-ST fibroblast viability loss – cell-based, RAS-independent, luminescence, dose response (AID 1935); format: functional; conditions: Homo sapiens;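 also: BJ fibroblasts immortalized with TERT plus LT and ST oncogenes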
[11] = DRD fibroblast viability loss – cell-based, non-viral oncogenic, luminescence, dose response (AID 1934); format: functional; conditions: Homo sapiens
[12] = HEK-293T viability loss after treatment – luminescence, T-cell screen hits, cytotoxicity control for TCR NF-kB inhibitor project, dose response (AID 489026); format: functional, cell-based;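 also: cells exposed to compound about 14 hours before the viability readout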
[13] = A cytotoxicity screen of small molecule inhibitors of the PhoP region in Salmonella typhi identified in the primary screen. [Related pubchem assays: 1850, 1864, 1985 ]; format: functional
[14] = target: T6, Heat shock factor protein 1 (Mus musculus, UniProt P38532); experiment: decrease of HSF1-responsive luciferase luminescence – cell-based, NIH3T3, dose retest, confirmation (AID 2382); format: functional;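 also: NIH3T3 fibroblasts with HSF1-driven luciferase reporter stressed by proteasome inhibitor MG132; luminescence from HSF1-driven luciferase expression after 8 hours of MG132 stress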
T6 sequence (P38532 whole entry): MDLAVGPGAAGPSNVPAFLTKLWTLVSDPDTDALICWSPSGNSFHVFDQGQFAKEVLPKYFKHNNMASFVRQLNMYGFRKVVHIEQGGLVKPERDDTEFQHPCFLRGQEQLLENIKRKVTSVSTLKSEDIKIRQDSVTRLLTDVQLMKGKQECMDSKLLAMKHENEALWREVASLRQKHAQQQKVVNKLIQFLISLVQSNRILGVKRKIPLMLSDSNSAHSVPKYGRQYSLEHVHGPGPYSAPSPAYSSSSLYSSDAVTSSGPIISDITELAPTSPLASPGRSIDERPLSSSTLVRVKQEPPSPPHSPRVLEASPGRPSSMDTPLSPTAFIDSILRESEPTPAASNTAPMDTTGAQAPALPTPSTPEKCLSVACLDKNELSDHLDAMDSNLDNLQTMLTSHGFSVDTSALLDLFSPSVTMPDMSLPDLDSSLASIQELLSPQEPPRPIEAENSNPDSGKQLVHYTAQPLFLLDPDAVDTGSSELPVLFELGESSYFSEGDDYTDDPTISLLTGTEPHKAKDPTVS

[15] = target: T7, Polyadenylate-binding protein 1 (Homo sapiens, UniProt P11940); experiment: MLLE binding blockers, Cy5 peptide tracer – biochemical, fluorescence polarization, Cy5-PAM2 peptide, secondary, miRNA deadenylation inhibitor project, dose response (AID 602260); format: functional; conditions: read-out: IC50_Mean
T7 sequence (P11940 whole entry, the tested form may be a part): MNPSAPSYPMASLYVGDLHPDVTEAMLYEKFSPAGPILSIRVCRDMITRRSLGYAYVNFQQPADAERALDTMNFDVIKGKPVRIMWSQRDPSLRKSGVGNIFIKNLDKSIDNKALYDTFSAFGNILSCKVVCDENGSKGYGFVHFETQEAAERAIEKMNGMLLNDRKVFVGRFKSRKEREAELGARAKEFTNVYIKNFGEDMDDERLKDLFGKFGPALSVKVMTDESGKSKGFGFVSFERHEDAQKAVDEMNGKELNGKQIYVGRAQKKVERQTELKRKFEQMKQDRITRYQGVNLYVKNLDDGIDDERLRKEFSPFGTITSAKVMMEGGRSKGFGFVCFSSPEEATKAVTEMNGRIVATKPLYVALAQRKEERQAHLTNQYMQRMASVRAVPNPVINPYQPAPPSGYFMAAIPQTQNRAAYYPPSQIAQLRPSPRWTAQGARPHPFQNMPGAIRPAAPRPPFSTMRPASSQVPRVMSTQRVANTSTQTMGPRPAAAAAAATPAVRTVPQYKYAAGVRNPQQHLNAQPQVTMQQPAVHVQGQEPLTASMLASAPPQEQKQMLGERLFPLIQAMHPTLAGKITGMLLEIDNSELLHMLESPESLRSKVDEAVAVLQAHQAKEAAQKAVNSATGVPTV

[16] = target: T7, Polyadenylate-binding protein 1; experiment: MLLE domain peptide-binding blockers, IC50 – biochemical, fluorescence polarization, FITC-PAM2 peptide, dose response (AID 602259); format: functional; conditions: read-out: IC50_Mean
Protein skinhead-1 = target: T8, Protein skinhead-1 (Caenorhabditis elegans, UniProt P34707); format: functional
T8 sequence (P34707 whole entry): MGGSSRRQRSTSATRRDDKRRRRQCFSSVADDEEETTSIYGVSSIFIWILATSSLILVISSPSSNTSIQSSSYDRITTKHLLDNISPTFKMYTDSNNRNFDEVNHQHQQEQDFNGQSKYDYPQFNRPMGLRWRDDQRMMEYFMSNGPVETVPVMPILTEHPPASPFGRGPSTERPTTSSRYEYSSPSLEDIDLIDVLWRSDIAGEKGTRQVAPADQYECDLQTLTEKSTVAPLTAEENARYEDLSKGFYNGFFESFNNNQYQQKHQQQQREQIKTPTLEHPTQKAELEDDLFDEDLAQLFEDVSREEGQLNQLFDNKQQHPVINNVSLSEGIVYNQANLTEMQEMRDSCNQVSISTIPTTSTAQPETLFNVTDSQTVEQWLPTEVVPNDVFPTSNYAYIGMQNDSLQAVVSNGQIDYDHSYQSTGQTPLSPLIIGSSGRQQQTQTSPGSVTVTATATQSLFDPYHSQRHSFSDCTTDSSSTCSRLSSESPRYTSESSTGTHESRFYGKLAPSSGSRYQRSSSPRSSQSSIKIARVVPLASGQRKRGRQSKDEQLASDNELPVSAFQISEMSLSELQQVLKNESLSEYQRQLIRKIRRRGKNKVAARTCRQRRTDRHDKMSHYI

Cytochrome P450 3A4 = Cytochrome P450 3A4 (Homo sapiens, UniProt P08684);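 also: CYP3A4 tested as one member of a cytochrome P450 panel screen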
Cytochrome P450 3A4, sequence (P08684 whole entry): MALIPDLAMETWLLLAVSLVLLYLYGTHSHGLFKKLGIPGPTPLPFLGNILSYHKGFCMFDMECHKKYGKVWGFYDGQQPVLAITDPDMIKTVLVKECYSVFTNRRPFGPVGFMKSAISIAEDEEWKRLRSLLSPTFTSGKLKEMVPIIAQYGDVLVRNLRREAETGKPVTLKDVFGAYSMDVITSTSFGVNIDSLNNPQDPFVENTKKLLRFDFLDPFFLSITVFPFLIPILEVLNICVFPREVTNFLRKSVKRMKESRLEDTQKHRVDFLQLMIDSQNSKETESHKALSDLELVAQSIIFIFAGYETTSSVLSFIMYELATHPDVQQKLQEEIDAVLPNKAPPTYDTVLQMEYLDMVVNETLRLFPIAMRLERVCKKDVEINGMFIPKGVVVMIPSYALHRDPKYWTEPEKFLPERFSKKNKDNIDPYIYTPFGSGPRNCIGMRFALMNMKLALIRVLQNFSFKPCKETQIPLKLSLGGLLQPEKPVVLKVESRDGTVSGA

O=C1NC(=O)N(CCc2ccccc2)C(=O)/C1=C/NNC(=O)c1ccncc1
IC50 (Aminopeptidase N): 38.4 µM (active)
EC50 [1]: > 300 µM (not active)
EC50 [2]: > 300 µM (not active)
IC50 (Prothrombin): > 50 µM (not active)

CCOc1cccc(/C=N/Nc2nc(N3CCCC3)nc(N3CCCC3)n2)c1O
CC50 [3]: > 40 µM (active)

CN1CCC(CN)(N2CCN(c3ccccc3)CC2)CC1
IC50 [4]: > 20 µM (inactive)
IC50 (Nonstructural protein 1): > 100 µM (active)
AC50 [5]: 23.1 µM (active)

Cc1ccc(Cn2c(C(C)Nc3nc(-c4ccc(Cl)cc4)cs3)nc3cc(C(=O)NCCCO)ccc32)cc1 (configuration not stated)
CC50 [3]: > 40 µM (active)

Nc1ncnc2c1ncn2[C@@H]1CCCO1
AC50 (Cytochrome P450 2C9): inconclusive

COc1ccc(-[n+]2c(-c3ccccc3)cc(-c3ccc(C)cc3)cc2-c2ccccc2)cc1.[O-][Cl+3]([O-])([O-])[O-]
EC50 [6]: 7.59 µM (active)
EC50 (BJ [7]): 3.39 µM (active)
EC50 (BJ [8]): 5 µM (active)
EC50 [9]: 0.037 µM (active)
EC50 (BJ [10]): 19.8 µM (active)
EC50 [11]: 10 µM (inconclusive)
IC50 [12]: > 80 µM (inactive)

Cc1ccc(CN2C3=NCCN3c3ccccc32)cc1
EC50 [13]: > 50 µM (active)

CCOc1cc(C(c2c(C)n[nH]c2O)c2c(C)n[nH]c2O)cc([N+](=O)[O-])c1O
EC50 [13]: > 50 µM (active)

COc1ccc2nc(SCC(=O)N3CCCCCC3)c(C#N)cc2c1
CC50 [3]: > 40 µM (active)

COc1ccc(CNS(=O)(=O)c2cc(-c3cc(C)no3)ccc2C(C)C)cc1
IC50 [12]: > 80 µM (inactive)

COc1ccc(OC[C@@H](CO)OC)cc1
AC50 (Cytochrome P450 2C9): inconclusive

Cc1ccc(CNC(=O)C2CC(c3ccccc3[N+](=O)[O-])=NO2)cc1 (configuration not stated)
AC50 (Cytochrome P450 2C9): inconclusive

O=C(Oc1c(-c2ccccc2Cl)oc2ccccc2c1=O)c1ccc(Cl)cc1
CC50 [3]: > 40 µM (active)
EC50 [14]: > 195 µM (not active)

O=C(/C=C/c1cccnc1)c1ccc(O)cc1
CC50 [3]: 17.5 µM (active)

Cc1cc2cc(CN=C(S)Nc3ccc(OC(F)(F)F)cc3)ccc2n1C
IC50 (Nonstructural protein 1): > 100 µM (active)
IC50 [15]: > 66 µM (inactive)
IC50 [16]: > 66 µM (inactive)
IC50 (Protein skinhead-1): > 100 µM (inactive)

COc1ccc(OC)c(C(=O)CN2C(=O)NC(C)(c3ccccc3)C2=O)c1 (configuration not stated)
AC50 (Cytochrome P450 2C9): inconclusive

O=C(O)Cn1c(=O)c2c3c(sc2n(Cc2ccccc2F)c1=O)CCCC3
EC50 [13]: > 50 µM (active)

O=C(NCC(c1ccco1)N1CCc2ccccc21)c1ccc([N+](=O)[O-])cc1 (configuration not stated)
CC50 [3]: > 40 µM (active)

Cc1c(/C=N/NC(=O)c2ccc3c(c2)OCO3)cnn1C
EC50 [13]: > 50 µM (active)
AC50 (Cytochrome P450 3A4): 22.4 µM (inconclusive)

COc1ccccc1CNCCc1ccc(F)cc1
EC50 [13]: > 50 µM (active)

COc1cccc(C(=O)Nc2cccc(SC)c2)c1
EC50 [13]: > 50 µM (active)
